Source: patent US20230365576A1, “BRM Targeting Compounds And Associated Methods Of Use” (Prelude Therapeutics Incorporated, priority 2022, published 2023)

Columns and labels:
[1] = biological target: T1, SMARCA2 (Homo sapiens, UniProt P51531); assay: SMARCA2 HiBiT degradation assay in HeLa cells; assay type: cell-based; settings: 18 hours; for DC50: read-out: SMARCA2 IC50; for Dmax: HeLa
T1 construct: SMARCA2-HiBiT knock-in Hela monoclonal cell (CS302366); host or cells: HeLa (CRISPR HiBiT knock-in monoclonal line, heterozygous)
How it was run: (§1)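 Degradation measured as HiBiT luminescence (Nano-Glo lytic reagent) after 18 h compound exposure at 37° C. Cells were HeLa clones carrying heterozygous HiBiT tags on SMARCA2 or SMARCA4, 2500 per well; compounds at 3-fold serial dilution from 10 μM.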

[2] = biological target: T2, SMARCA4 (Homo sapiens, UniProt P51532); assay: SMARCA4 HiBiT degradation assay in HeLa cells; assay type: cell-based; settings: 18 hours; for Dmax: HeLa
T2 construct: SMARCA4-HiBiT knock-in Hela monoclonal cell (CS3023226) were purchased from Promega; host or cells: HeLa (CRISPR HiBiT knock-in monoclonal line, heterozygous)
How it was run: as §1

T1 sequence (P51531 whole entry): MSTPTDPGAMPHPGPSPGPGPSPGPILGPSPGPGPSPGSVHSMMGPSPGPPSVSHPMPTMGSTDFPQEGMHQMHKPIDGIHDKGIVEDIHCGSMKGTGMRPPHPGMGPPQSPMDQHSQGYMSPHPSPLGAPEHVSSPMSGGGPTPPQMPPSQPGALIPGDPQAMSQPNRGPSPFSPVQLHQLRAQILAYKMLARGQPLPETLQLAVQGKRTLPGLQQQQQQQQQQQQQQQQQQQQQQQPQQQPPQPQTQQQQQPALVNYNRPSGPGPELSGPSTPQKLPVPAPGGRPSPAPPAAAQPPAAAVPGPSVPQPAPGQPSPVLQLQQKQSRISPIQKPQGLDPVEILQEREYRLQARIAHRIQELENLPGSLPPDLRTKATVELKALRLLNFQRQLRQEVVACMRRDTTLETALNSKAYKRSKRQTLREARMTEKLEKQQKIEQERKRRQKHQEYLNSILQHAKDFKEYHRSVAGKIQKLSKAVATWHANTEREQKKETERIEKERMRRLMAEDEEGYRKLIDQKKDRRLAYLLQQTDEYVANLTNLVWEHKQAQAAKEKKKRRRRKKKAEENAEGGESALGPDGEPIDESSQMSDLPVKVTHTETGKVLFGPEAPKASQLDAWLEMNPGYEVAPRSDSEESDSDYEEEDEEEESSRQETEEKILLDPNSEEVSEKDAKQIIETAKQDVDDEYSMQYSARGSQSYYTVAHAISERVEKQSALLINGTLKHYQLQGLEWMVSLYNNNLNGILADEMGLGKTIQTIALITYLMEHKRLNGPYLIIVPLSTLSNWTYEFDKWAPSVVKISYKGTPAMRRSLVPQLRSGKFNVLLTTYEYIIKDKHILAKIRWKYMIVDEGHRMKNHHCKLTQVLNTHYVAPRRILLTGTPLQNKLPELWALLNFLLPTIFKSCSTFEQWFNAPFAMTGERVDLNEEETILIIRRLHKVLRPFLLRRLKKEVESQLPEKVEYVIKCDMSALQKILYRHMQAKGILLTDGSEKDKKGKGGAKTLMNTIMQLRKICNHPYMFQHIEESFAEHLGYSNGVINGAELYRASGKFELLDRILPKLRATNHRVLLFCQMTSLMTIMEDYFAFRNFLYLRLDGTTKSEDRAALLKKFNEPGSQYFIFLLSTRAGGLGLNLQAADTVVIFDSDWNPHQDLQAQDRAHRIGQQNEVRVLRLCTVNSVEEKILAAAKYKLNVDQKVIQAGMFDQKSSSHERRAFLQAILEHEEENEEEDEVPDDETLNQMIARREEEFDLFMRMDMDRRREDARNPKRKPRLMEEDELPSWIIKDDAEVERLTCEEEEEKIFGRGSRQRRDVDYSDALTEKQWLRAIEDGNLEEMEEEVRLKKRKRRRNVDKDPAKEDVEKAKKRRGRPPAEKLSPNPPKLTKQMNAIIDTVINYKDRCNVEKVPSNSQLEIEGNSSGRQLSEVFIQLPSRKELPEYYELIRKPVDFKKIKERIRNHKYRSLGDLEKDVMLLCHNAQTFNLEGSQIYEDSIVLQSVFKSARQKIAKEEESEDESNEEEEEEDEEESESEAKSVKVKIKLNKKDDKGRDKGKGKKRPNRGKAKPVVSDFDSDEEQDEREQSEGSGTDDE
T2 sequence (P51532 whole entry): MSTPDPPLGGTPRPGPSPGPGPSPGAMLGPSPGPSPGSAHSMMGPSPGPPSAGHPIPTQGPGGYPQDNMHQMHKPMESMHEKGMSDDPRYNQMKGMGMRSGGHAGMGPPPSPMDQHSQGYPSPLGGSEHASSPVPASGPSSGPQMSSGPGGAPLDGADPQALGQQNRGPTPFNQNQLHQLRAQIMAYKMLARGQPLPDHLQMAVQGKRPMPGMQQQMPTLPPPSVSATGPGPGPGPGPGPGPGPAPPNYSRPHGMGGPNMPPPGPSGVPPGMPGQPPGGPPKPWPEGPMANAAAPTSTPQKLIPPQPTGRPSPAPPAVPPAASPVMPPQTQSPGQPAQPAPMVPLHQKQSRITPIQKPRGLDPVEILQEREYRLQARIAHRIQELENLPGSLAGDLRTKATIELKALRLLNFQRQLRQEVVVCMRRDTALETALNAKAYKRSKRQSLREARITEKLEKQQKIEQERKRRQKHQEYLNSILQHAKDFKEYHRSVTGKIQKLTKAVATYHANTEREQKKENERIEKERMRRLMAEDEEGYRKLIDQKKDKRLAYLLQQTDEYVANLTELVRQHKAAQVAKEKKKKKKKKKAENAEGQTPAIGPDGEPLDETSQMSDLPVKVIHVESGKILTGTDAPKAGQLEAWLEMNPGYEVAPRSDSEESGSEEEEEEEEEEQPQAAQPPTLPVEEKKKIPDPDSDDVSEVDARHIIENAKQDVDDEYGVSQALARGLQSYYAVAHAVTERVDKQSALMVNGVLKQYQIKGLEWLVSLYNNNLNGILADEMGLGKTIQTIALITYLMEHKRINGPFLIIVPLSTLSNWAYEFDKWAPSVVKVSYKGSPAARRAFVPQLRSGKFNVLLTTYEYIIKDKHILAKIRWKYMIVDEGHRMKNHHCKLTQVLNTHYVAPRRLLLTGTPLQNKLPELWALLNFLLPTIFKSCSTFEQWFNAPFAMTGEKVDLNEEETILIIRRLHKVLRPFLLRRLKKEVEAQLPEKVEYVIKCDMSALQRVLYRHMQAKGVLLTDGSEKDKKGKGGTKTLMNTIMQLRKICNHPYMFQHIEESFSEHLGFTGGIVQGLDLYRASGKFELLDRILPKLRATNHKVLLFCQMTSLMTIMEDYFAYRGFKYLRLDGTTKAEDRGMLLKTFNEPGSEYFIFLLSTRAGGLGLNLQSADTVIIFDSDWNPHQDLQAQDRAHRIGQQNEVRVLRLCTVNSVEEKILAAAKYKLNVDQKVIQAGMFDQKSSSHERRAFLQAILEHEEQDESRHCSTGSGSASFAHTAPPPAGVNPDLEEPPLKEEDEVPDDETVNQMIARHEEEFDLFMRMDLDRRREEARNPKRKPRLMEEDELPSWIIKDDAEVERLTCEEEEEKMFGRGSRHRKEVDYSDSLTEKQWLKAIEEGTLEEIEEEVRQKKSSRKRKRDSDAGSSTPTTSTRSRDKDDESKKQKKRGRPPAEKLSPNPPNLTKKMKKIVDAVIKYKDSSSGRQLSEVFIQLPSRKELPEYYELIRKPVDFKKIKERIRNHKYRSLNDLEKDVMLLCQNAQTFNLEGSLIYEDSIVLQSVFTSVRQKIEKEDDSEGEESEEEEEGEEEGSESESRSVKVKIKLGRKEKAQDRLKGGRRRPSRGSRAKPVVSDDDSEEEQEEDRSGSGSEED

| Structure (SMILES) | DC50 [1] [nM] | Dmax [1] [%] | DC50 [2] [nM] | Dmax [2] [%] | SMARCA4 DMax % [2] | SMARCA2 DMax % [1] |
| --- | --- | --- | --- | --- | --- | --- |
| C[C@@H]1CN(CC2CCN(c3ccc4c(c3)C(=O)N(C3CCC(=O)NC3=O)C4)CC2)C[C@@H](C)N1C(=O)N1CCN2c3cc(-c4cc(F)cc(F)c4O)nnc3NCC2(C)C1 (stereo partly drawn) [Example 33, 3-(6-(4-(((3R,5R)-4-(2-(3,5-difluoro-2-hydroxyphenyl)-6a-methyl-6,6a,7,8,9,10-hexahydro-5H-pyrazino[1′,2′:4,5]pyrazino[2,3-c]pyridazine-8-carbonyl)-3,5-dimethylpiperazin-1-yl)methyl)piperidin-1-yl)-1-oxoisoindolin-2-yl)piperidine-2,6-dione] | < 100 | > 75 | < 100 | > 75 | – | – |
| CC1(C)CC(CN2CCN(c3ccc4c(c3)C(=O)N(C3CCC(=O)NC3=O)C4)CC2)CCN1C(=O)N1CCN2c3cc(-c4cccc(F)c4O)nnc3NC[C@H]2C1 (stereo partly drawn) [Example 122, 3-(6-(4-((1-((S)-2-(3-fluoro-2-hydroxyphenyl)-6,6a,7,8,9,10-hexahydro-5H-pyrazino[1′,2′:4,5]pyrazino[2,3-c]pyridazine-8-carbonyl)-2,2-dimethylpiperidin-4-yl)methyl)piperazin-1-yl)-1-oxoisoindolin-2-yl)piperidine-2,6-dione] | < 100 | > 75 | < 100 | 50 to 75 | – | – |
| CC12CNc3nnc(-c4cccc(F)c4O)cc3N1CCN(C[C@H]1CC[C@H](CN3CCN(c4ccc5c(c4)C(=O)N(C4CCC(=O)NC4=O)C5)CC3)CC1)C2 (single isomer, unassigned) [Example 116] | < 100 | – | < 100 | – | – | – |
| CCC1CN(CC2CCN(c3ccc4c(c3)C(=O)N(C3CCC(=O)NC3=O)C4)CC2)CCN1C(=O)N1CCN2c3cc(-c4cc(F)cc(F)c4O)nnc3NC[C@H]2C1 (mixture of isomers) [Example 35, 3-(6-(4-((4-((S)-2-(3,5-difluoro-2-hydroxyphenyl)-6,6a,7,8,9,10-hexahydro-5H-pyrazino[1′,2′:4,5]pyrazino[2,3-c]pyridazine-8-carbonyl)-3-ethylpiperazin-1-yl)methyl)piperidin-1-yl)-1-oxoisoindolin-2-yl)piperidine-2,6-dione] | < 100 | > 75 | < 100 | 50 to 75 | – | – |
| CC1(C)CN(CC2CCN(c3ccc4c(c3)C(=O)N(C3CCC(=O)NC3=O)C4)CC2)CCN1C(=O)N1CCN2c3cc(-c4cccc(F)c4O)nnc3NCC2(C)C1 (single isomer, unassigned) [Example 9, 3-(6-(4-((4-(2-(3-fluoro-2-hydroxyphenyl)-6a-methyl-6,6a,7,8,9,10-hexahydro-5H-pyrazino[1′,2′:4,5]pyrazino[2,3-c]pyridazine-8-carbonyl)-3,3-dimethylpiperazin-1-yl)methyl)piperidin-1-yl)-1-oxoisoindolin-2-yl)piperidine-2,6-dione] | < 100 | > 75 | < 100 | – | A (A=Dmax>75%) | – |
| C[C@@H]1CN(CC2CN(c3ccc4c(c3)C(=O)N(C3CCC(=O)NC3=O)C4)C2)C[C@H](C)N1C(=O)N1CCN2c3cc(-c4cc(F)cc(F)c4O)nnc3NC[C@H]2C1 (stereo partly drawn) [Example 20, 3-(6-(3-(((3R,5S)-4-((S)-2-(3,5-difluoro-2-hydroxyphenyl)-6,6a,7,8,9,10-hexahydro-5H-pyrazino[1′,2′:4,5]pyrazino[2,3-c]pyridazine-8-carbonyl)-3,5-dimethylpiperazin-1-yl)methyl)azetidin-1-yl)-1-oxoisoindolin-2-yl)piperidine-2,6-dione] | < 100 | > 75 | < 100 | < 50 | – | – |
| CC1(C)CN(CC2CCN(c3ccc4c(c3)C(=O)N([C@H]3CCC(=O)NC3=O)C4)CC2)CCN1C(=O)N1CCN2c3cc(-c4cccc(F)c4O)nnc3NCC2(CF)C1 (single isomer, unassigned) [Example 90] | < 100 | – | > 1000 | – | C (C=Dmax<50%) | A (A=Dmax>75%) |
| C[C@@H]1CN(CC2CCN(c3ccc4c(c3)C(=O)N([C@@H]3CCC(=O)NC3=O)C4)CC2)C[C@H](C)N1C(=O)N1CCN2c3cc(-c4cc(F)cc(F)c4O)nnc3NC[C@H]2C1 [Example 16, (R)-3-(6-(4-(((3S,5R)-4-((S)-2-(3,5-difluoro-2-hydroxyphenyl)-6,6a,7,8,9,10-hexahydro-5H-pyrazino[1′,2′:4,5]pyrazino[2,3-c]pyridazine-8-carbonyl)-3,5-dimethylpiperazin-1-yl)methyl)piperidin-1-yl)-1-oxoisoindolin-2-yl)piperidine-2,6-dione] | < 100 | > 75 | < 100 | < 50 | – | – |
| CCC12CNc3nnc(-c4cc(F)cc(F)c4O)cc3N1CCN(C(=O)N1[C@H](C)CN(CC3CCN(c4ccc5c(c4)C(=O)N(C4CCC(=O)NC4=O)C5)CC3)C[C@@H]1C)C2 (single isomer, unassigned) [Example 85] | < 100 | – | < 100 | – | – | – |
| CCC12CNc3nnc(-c4cc(F)cc(F)c4O)cc3N1CCN(C(=O)C1(F)CCN(CC3CCN(c4ccc5c(c4)C(=O)N([C@H]4CCC(=O)NC4=O)C5)CC3)CC1)C2 (single isomer, unassigned) [Example 109] | < 100 | > 75 | < 100 | > 75 | – | – |
| CCC12CNc3nnc(-c4cc(F)cc(F)c4O)cc3N1CCN(C(=O)N1[C@H](C)CN(CC3CCN(c4ccc5c(c4)C(=O)N(C4CCC(=O)NC4=O)C5)CC3)C[C@@H]1C)C2 (single isomer, unassigned) [Example 59] | < 100 | > 75 | < 100 | > 75 | – | – |
| O=C1CC[C@H](N2Cc3ccc(N4CCN(C[C@H]5CC[C@H](CN6CCN7c8cc(-c9cccc(F)c9O)nnc8NC[C@H]7C6)CC5)CC4)cc3C2=O)C(=O)N1 [Example 114, (S)-3-(6-(4-(((1S,4S)-4-(((S)-2-(3-fluoro-2-hydroxyphenyl)-5,6,6a,7,9,10-hexahydro-8H-pyrazino[1′,2′:4,5]pyrazino[2,3-c]pyridazin-8-yl)methyl)cyclohexyl)methyl)piperazin-1-yl)-1-oxoisoindolin-2-yl)piperidine-2,6-dione] | < 100 | > 75 | < 100 | 50 to 75 | – | – |
| CCC12CNc3nnc(-c4cccc(F)c4O)cc3N1CCN(C(=O)N1[C@@H](C)CN(CC3CCN(c4ccc5c(c4)C(=O)N(C4CCC(=O)NC4=O)C5)CC3)C[C@@H]1C)C2 (single isomer, unassigned) [Example 81] | < 100 | > 75 | 100 to 1000 | < 50 | – | – |
| O=C1CCC(N2Cc3ccc(N4CC[C@@H](CN5CC[C@@H](CN6CCN7c8cc(-c9cc(F)cc(F)c9O)nnc8NC[C@H]7C6)C5)C4)cc3C2=O)C(=O)N1 (stereo partly drawn) [Example 52, 3-(6-((S)-3-(((R)-3-(((S)-2-(3,5-difluoro-2-hydroxyphenyl)-5,6,6a,7,9,10-hexahydro-8H-pyrazino[1′,2′:4,5]pyrazino[2,3-c]pyridazin-8-yl)methyl)pyrrolidin-1-yl)methyl)pyrrolidin-1-yl)-1-oxoisoindolin-2-yl)piperidine-2,6-dione] | < 100 | > 75 | < 100 | 50 to 75 | – | – |
| C[C@H]1CN(CC2CCN(c3ccc4c(c3)C(=O)N(C3CCC(=O)NC3=O)C4)CC2)C[C@H](C)N1C(=O)N1CCN2c3cc(-c4cc(F)cc(F)c4O)nnc3NC[C@H]2C1 (stereo partly drawn) [Example 47, 3-(6-(4-(((3S,5S)-4-((S)-2-(3,5-difluoro-2-hydroxyphenyl)-6,6a,7,8,9,10-hexahydro-5H-pyrazino[1′,2′:4,5]pyrazino[2,3-c]pyridazine-8-carbonyl)-3,5-dimethylpiperazin-1-yl)methyl)piperidin-1-yl)-1-oxoisoindolin-2-yl)piperidine-2,6-dione] | < 100 | > 75 | < 100 | 50 to 75 | – | – |
| C[C@@H]1CN(CC2CCN(c3ccc4c(c3)C(=O)N(C3CCC(=O)NC3=O)C4)CC2)C[C@H](C)N1C(=O)N1CCN2c3cc(-c4cc(F)cc(F)c4O)nnc3NCC2(C)C1 (single isomer, unassigned) [Example 64] | < 100 | – | < 100 | – | – | – |
| CC1(C)CN(CC2CCN(c3ccc4c(c3)C(=O)N(C3CCC(=O)NC3=O)C4=O)CC2)CCN1C(=O)N1CCN2c3cc(-c4cccc(F)c4O)nnc3NCC2(C)C1 (mixture of isomers) [Example 7, 2-(2,6-dioxopiperidin-3-yl)-5-(4-((4-(2-(3-fluoro-2-hydroxyphenyl)-6a-methyl-6,6a,7,8,9,10-hexahydro-5H-pyrazino[1′,2′:4,5]pyrazino[2,3-c]pyridazine-8-carbonyl)-3,3-dimethylpiperazin-1-yl)methyl)piperidin-1-yl)isoindoline-1,3-dione] | < 100 | > 75 | < 100 | 50 to 75 | – | – |
| CC12CNc3nnc(-c4cccc(F)c4O)cc3N1CCN(C(=O)C1(F)CCN(CC3CCN(c4ccc5c(c4)C(=O)N([C@H]4CCC(=O)NC4=O)C5)CC3)CC1)C2 (single isomer, unassigned) [Example 111] | < 100 | 50 to 75 | > 1000 | < 50 | – | – |
| O=C1CCC(N2Cc3cc(N4CCO[C@@H](CN5CC[C@H](CN6CCN7c8cc(-c9cc(F)cc(F)c9O)nnc8NC[C@H]7C6)[C@@H](F)C5)C4)ccc3C2=O)C(=O)N1 (stereo partly drawn) [Example 51, 3-(5-((S)-2-(((3R,4R)-4-(((S)-2-(3,5-difluoro-2-hydroxyphenyl)-5,6,6a,7,9,10-hexahydro-8H-pyrazino[1′,2′:4,5]pyrazino[2,3-c]pyridazin-8-yl)methyl)-3-fluoropiperidin-1-yl)methyl)morpholino)-1-oxoisoindolin-2-yl)piperidine-2,6-dione] | < 100 | < 50 | > 1000 | < 50 | – | – |
